Results on 17 compounds are retold here after patent US8354415B2, “Thienopyrimidine compounds and compositions” (Vernalis (R&D) Ltd., priority 2007, dated 2013).

pIC50: −log10 of the molar value.

For the assay, the target named is T1, human adenosine A2B receptors (Homo sapiens, UniProt P29275).
T1 construct: expressed in transfected cells
T1 sequence (P29275 1-332): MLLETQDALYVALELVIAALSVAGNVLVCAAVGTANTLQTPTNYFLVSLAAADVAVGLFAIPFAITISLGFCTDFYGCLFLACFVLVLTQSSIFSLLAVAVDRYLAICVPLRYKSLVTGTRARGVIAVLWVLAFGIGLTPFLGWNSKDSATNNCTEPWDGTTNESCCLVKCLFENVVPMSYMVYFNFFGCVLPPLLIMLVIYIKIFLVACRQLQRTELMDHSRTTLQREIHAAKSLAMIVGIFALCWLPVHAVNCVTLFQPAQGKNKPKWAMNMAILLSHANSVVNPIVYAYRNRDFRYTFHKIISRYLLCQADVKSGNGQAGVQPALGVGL
Briefly: FLIPR calcium flux assay, adenosine A2B receptor expressing cells. The following applies: expressed human adenosine A2B receptors in mammalian cell lines, activity range. The format is cell-based. The procedure:
The use of a Fluorometric Imaging Plate Reader (FLIPR) to measure calcium flux in Adenosine-receptor expressing cells is a well-established technique. In this assay calcium flux is triggered by receptor activation and measured through the fluorescence of an incorporated calcium-sensitive dye. The potencies shown were determined using expressed human adenosine A2B receptors in mammalian cell lines. Selectivity values were obtained by using mammalian cell lines expressing the human adenosine A1, A2A, and A3 receptors. Compound potency was determined from dose response curves and are reported as IC50 values.
With `C[C@H](Nc1nc(C(=O)N2CCCC2)c2sccc2n1)c1cccnc1` [Example 23, (S)-[2-(1-Pyridin-3-yl-ethylamino)-thieno[3,2-d]pyrimidin-4-yl]-pyrrolidin-1-yl-methanone], the pIC50 was over 6.30.
Consider `O=C(NCc1cccnc1)c1nc(NCc2cccnc2)nc2ccsc12` [Example 18, 2-[(Pyridin-3-ylmethyl)-amino]-thieno[3,2-d]pyrimidine-4-carboxylic acid (pyridin-3-ylmethyl)-amide], for which the negative logarithm of the IC50 (pIC50) is under 6.30.
For `CC(C)NC(=O)c1nc(NCc2cccnc2)nc2ccsc12` [Example 11, 2-[(Pyridin-3-ylmethyl)-amino]-thieno[3,2-d]pyrimidine-4-carboxylic acid isopropylamide] the value was over 6.30.
For `O=C(NC1CCCC1)c1nc(NCc2cccnc2)nc2ccsc12` [Example 12, 2-[(Pyridin-3-ylmethyl)-amino]thieno[3,2-d]pyrimidine-4-carboxylic acid cyclopentylamide] the value was under 6.30; for `O=C(NC1CCCCC1)c1nc(NCc2cccnc2)nc2ccsc12` [Example 15, 2-[(Pyridin-3-ylmethyl)-amino]-thieno[3,2-d]pyrimidine-4-carboxylic acid cyclohexylamide], over 6.30.
Next, `CNC(=O)c1nc(NCc2cccnc2)nc2ccsc12` [Example 13, 2-[(Pyridin-3-ylmethyl)-amino]-thieno[3,2-d]pyrimidine-4-carboxylic acid methylamide]: under 6.30; `CC(Nc1nc(C(=O)N2CCCC2)c2sccc2n1)c1cccnc1` (racemic) [Example 7, [2-(1-Pyridin-3-yl-ethylamino)-thieno[3,2-d]pyrimidin-4-yl]-pyrrolidin-1-yl-methanone]: under 6.30; `Nc1nc(C(=O)NC2CC2)c2sccc2n1` [Example 21, 2-Amino-thieno[3,2-d]pyrimidine-4-carboxylic acid cyclopropylamide]: under 6.30.
For `O=C(c1nc(NCc2cccnc2)nc2ccsc12)N1CCCC1` [Example 9, {2-[(Pyridin-3-ylmethyl)-amino]-thieno[3,2-d]pyrimidin-4-yl}-pyrrolidin-1-yl-methanone], the pIC50 is over 6.30.
Regarding `O=C(c1nc(NCc2cccnc2)nc2ccsc12)N1CCCCC1` [Example 19, Piperidin-1-yl-{2-[(pyridin-3-ylmethyl)-amino]-thieno[3,2-d]pyrimidin-4-yl}-methanone], the negative logarithm of the IC50 (pIC50) was under 6.30.
For `O=C(NC1CC1)c1nc(NCc2cccnc2)nc2ccsc12` [Example 10, 2-[(Pyridin-3-ylmethyl)-amino]-thieno[3,2-d]pyrimidine-4-carboxylic acid cyclopropylamide] the value was under 6.30.
With `CCNC(=O)c1nc(NCc2cccnc2)nc2ccsc12` [Example 8, 2-[(Pyridin-3-ylmethyl)-amino]-thieno[3,2-d]pyrimidine-4-carboxylic acid ethylamide], the pIC50 was under 6.30.
Consider `O=C(NCCc1ccccc1)c1nc(NCc2cccnc2)nc2ccsc12` [Example 14, 2-[(Pyridin-3-ylmethyl)-amino]-thieno[3,2-d]pyrimidine-4-carboxylic acid phenethyl-amide], for which the pIC50 was over 6.30.
Regarding `COCCNC(=O)c1nc(NCc2cccnc2)nc2ccsc12` [Example 17, 2-[(Pyridin-3-ylmethyl)-amino]-thieno[3,2-d]pyrimidine-4-carboxylic acid (2-methoxy-ethyl)-amide], the pIC50 was under 6.30.
As for `C[C@@H](Nc1nc(C(=O)N2CCCC2)c2sccc2n1)c1cccnc1` [Example 22], the pIC50 is under 6.30.
Next, `CC(Nc1nc(C(=O)NC2CC2)c2sccc2n1)c1cccnc1` (centres unmarked) [Example 20, 2-(1-Pyridin-3-yl-ethylamino)-thieno[3,2-d]pyrimidine-4-carboxylic acid cyclopropylamide]: over 6.30; `O=C(NCc1ccccc1)c1nc(NCc2cccnc2)nc2ccsc12` [Example 16, 2-[(Pyridin-3-ylmethyl)-amino]-thieno[3,2-d]pyrimidine-4-carboxylic acid benzylamide]: over 6.30.
